Reference: patent publication US20040102525A1, “Compositions and methods of treating neurological disease and providing neuroprotection” (priority 2002, published 2004)

Assays:
[1] = healthy subjects; cited from earlier work
[2] = acute, sub-anesthetic doses, normal subjects; cited from earlier work
[3] = following nerve injury; cited from earlier work
[4] = cited from earlier work
[5] = rat, in vivo; cited from earlier work
[6] = injected directly into the VNC prior to UVD; cited from earlier work
NMDA receptors = settings: perfused, ventilated rat lungs; cited from earlier work
osteoblasts = settings: cited from earlier work
neurons = settings: cited from earlier work
[7] = in vivo; cited from earlier work
neuronal ganglion cell = settings: administered 4 hours after NMDA neurotoxicity; cited from earlier work
hippocampal slices = settings: cited from earlier work
[8] = rat, in vivo; cited from earlier work; remark: listed apart in the source
NR2C and NR2D subunits = settings: cited from earlier work
[9] = lesions of the entorhinal cortex; cited from earlier work
[10] = EAE (Wallstrom, 1996); cited from earlier work
cortical cell cultures = settings: cited from earlier work
[11] = up to 2 hours after induction of hypoxia/ischemia, immature and adult rats; cited from earlier work
[12] = parallel treatment with memantine and 3-NP; cited from earlier work
[13] = molecular target: NR2A of the NMDA receptor (Homo sapiens, UniProt Q05586+Q12879); settings: cited from earlier work
NR2A of the NMDA receptor, sequence (Q12879 23-1464, other chains not shown): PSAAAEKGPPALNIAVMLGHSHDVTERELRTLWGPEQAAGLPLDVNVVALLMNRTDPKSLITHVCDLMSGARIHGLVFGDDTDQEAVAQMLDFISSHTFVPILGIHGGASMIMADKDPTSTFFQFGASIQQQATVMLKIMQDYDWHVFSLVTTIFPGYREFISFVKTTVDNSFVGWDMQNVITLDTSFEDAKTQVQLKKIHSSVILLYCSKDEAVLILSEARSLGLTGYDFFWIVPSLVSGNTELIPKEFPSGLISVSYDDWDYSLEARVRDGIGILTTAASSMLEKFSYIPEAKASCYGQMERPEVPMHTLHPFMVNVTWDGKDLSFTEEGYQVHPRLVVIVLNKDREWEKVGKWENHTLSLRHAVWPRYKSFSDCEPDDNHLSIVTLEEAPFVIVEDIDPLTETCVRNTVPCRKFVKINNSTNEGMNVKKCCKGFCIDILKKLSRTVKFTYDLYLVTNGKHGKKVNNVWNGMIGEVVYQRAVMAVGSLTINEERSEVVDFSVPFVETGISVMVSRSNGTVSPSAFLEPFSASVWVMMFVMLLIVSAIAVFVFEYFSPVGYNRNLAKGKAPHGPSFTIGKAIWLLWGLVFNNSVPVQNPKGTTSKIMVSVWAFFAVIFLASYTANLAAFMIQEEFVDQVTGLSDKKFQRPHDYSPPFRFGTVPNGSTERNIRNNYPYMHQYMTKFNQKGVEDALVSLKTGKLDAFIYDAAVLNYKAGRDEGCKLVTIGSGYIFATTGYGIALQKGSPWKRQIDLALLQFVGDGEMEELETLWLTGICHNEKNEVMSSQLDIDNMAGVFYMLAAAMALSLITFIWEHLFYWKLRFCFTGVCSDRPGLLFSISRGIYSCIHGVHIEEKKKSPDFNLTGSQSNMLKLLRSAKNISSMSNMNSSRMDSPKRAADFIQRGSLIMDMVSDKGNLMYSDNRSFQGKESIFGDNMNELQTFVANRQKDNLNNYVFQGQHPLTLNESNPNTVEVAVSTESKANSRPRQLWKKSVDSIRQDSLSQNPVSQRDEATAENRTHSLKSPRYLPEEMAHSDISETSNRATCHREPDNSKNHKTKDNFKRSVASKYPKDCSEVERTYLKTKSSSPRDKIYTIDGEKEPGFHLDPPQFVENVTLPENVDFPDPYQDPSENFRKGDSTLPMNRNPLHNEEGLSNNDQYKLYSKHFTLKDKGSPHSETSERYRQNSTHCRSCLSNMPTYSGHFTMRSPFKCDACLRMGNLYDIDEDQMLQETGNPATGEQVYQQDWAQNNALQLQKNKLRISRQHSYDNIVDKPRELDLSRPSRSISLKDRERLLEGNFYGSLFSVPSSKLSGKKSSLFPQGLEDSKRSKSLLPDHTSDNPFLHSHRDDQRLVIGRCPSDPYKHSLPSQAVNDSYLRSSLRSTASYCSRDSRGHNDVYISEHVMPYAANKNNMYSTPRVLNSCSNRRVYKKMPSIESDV

[14] = animal studies; cited from earlier work
[15] = cited from earlier work; remark: listed apart in the source
NR1A/2B = NR1A/2B (Homo sapiens, UniProt Q05586+Q13224); settings: cited from earlier work
NR1A/2B, sequence (Q13224 27-1484, other chains not shown): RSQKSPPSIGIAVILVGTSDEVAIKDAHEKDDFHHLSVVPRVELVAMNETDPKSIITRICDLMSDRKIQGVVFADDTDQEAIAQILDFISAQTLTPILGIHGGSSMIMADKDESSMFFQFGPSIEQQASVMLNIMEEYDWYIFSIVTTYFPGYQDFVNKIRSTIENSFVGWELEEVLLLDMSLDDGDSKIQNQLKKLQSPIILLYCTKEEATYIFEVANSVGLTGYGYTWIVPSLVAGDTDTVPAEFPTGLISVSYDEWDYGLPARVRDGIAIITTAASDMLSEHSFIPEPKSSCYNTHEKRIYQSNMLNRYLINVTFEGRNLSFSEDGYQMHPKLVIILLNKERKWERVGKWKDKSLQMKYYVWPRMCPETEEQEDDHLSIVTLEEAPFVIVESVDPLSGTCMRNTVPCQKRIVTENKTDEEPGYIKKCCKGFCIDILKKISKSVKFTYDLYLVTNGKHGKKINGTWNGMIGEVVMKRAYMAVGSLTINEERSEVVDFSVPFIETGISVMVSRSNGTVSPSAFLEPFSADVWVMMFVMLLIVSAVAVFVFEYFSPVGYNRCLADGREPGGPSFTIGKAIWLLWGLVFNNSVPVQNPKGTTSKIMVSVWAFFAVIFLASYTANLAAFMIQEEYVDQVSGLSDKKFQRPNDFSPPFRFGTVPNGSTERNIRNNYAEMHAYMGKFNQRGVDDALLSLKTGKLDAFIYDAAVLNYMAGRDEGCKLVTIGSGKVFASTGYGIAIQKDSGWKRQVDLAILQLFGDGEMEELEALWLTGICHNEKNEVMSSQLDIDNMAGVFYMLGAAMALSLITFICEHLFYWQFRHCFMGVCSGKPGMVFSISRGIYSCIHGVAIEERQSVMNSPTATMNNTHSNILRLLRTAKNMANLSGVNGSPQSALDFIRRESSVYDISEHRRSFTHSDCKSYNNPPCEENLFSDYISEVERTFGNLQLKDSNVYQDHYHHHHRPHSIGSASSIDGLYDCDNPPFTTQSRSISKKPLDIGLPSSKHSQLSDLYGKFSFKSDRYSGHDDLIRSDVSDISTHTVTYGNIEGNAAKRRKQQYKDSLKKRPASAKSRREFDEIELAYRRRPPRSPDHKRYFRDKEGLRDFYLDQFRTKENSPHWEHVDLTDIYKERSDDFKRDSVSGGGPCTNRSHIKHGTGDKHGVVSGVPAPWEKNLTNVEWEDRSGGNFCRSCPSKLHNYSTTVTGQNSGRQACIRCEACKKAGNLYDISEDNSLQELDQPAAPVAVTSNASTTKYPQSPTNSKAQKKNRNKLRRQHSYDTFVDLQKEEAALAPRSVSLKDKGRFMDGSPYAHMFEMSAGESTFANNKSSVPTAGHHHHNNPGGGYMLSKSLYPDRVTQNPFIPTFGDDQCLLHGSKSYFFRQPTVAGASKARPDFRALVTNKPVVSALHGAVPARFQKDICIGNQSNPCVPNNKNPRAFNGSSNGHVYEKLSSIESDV

NMDA receptor = settings: cited from earlier work
[16] = moderate and severe Alzheimer's disease; cited from earlier work
[17] = pre- or posttreatment, 20 mg/kg IP (von Euler, 1997); cited from earlier work
[18] = cited from earlier work; remark: listed apart in the source
[19] = one patient; metabolic deficits by PET not totally reversed; cited from earlier work
[20] = in vivo; cited from earlier work; remark: listed apart in the source
[21] = animals studies; cited from earlier work
BDNF mRNA = settings: rat limbic system; cited from earlier work
[22] = cited from earlier work; remark: listed apart in the source
[23] = rat, brain microdialysis with in vivo recovery; cited from earlier work
[24] = test system: D2, AMPA, kainate, alpha 1, alpha 2, and 5-HT re-uptake; settings: alpha 1, alpha 2, 5-HT re-uptake; cited from earlier work
[25] = test system: inner hair cell afferents; settings: animal models; cited from earlier work
[26] = multiple sclerosis patients; cited from earlier work
[27] = test system: L- and N type voltage-activated calcium channels, Na+ channels; settings: cited from earlier work
[28] = test system: tumor cells including lung, rhabdomyosarcoma, medulloblastoma, and thyroid adenocarcinoma; settings: cited from earlier work
[29] = test system: glutamate secreting tumors; settings: 25 mg/kg IP; cited from earlier work
GABA or AMPA receptors = settings: cited from earlier work
[30] = rats with experimental acute liver failure; cited from earlier work
[31] = Tinnitus patient treated with chronic oral memantine; type: in vivo, human; settings: first patient in the USA, category I tinnitus, chronic oral 10 mg BID
Excerpt: The efficacy of current therapy for tinnitus is controversial but includes devices that mask tinnitus and TRT (tinnitus retraining therapy) which is a technique utilizing white noise for a period of time to assist the patient to habituate to their tinnitus. […] We postulate that the administration of memantine would attenuate the neurotoxicity mechanisms of cochlear disorders and tinnitus, and also attenuate any abnormal neuronal plasticity in the temporal-parietal association cortex resulting in clinical efficacy for the treatment of tinnitus.

[32] = in vivo; cited from earlier work; remark: listed apart in the source

**Q.** For `CNC1(c2ccccc2Cl)CCCCC1=O` (stereo not shown) [ketamine], which “smooth pursuit of eye movements” value [1] is on record?
**A.** deficits in smooth pursuit of eye movements

**Q.** What about the memory [2] of the same compound?
**A.** delayed memory recall and decreases in verbal and nonverbal memory

**Q.** What does the source list for `C[C@]12N[C@H](Cc3ccccc31)c1ccccc12` [MK-801]?
**A.** motorneurone death [3]: reduced motorneurone death; increased airway perfusion pressure produced by NMDA ([4]; NMDA): abolished; acute elevation in airway perfusion pressure by capsaicin ([4]; capsaicin): attenuated in both magnitude and duration; cortical spreading after infarction [5]: able to inhibit cortical spreading; hyperexcitability after infarction [5]: unable to reverse the hyperexcitability; severity of the vestibular syndrome (SON, YHT) [6]: reduced the severity of the vestibular syndrome; pulmonary injury by NMDA receptor activation (NMDA receptors): prevented; inward currents in response to NMDA agonist stimulation (osteoblasts): significant decrease in inward currents; neuronal loss by neurotoxic concentrations of glutamate (neurons): attenuated the neuronal loss

**Q.** With `CC12CC3CC(C)(C1)CC(N)(C3)C2.Cl` [memantine, 1-amino-3,5-dimethyl-adamantane hydrochloride] as the compound, how does the placental penetration [7] read?
**A.** good placental penetration

**Q.** What about the teratogenesis [7] of the same compound?
**A.** minimal teratogenesis

**Q.** What about the “toxicity to the fetus” value [7] of the same compound?
**A.** non-toxic properties to the fetus

**Q.** And the “neuronal ganglion cell death” value (neuronal ganglion cell)?
**A.** prevention of neuronal ganglion cell death

**Q.** And the “effect on LTP in hippocampal slices” value (hippocampal slices; 6-10 μM)?
**A.** do not attenuate LTP

**Q.** And the “increase of the CA1 pyramidal cell spike” value (hippocampal slices; in vitro)?
**A.** 100%

**Q.** What about the “synaptic functioning after removal of Mg++” value (hippocampal slices; relevant human brain concentrations (1-μM)) of the same compound?
**A.** normalized synaptic functioning

**Q.** And the “lesions of the NBM produced by mitochondrial toxins (3-NP)” value [8]?
**A.** inhibited

**Q.** What about the “striatal lesions by malonate” value [8] of the same compound?
**A.** significantly attenuated

**Q.** What about the “block of NR2C and NR2D subunits” value (NR2C and NR2D subunits) of the same compound?
**A.** preferentially blocks

**Q.** What about the “time to normalized learning” value [9] of the same compound?
**A.** ≤ 8 days

**Q.** What about the “time to reversal of learning impairment” value [9] of the same compound?
**A.** ≤ 3 days

**Q.** What about the “effect on CNS inflammation, IFN-γ, lymphocytic proliferation, systemic immunity” value [10] of the same compound?
**A.** failed to have any effect

**Q.** And the “apoptosis induced by gp120” value (cortical cell cultures)?
**A.** prevention of apoptosis

**Q.** And the infarct size [11]?
**A.** significantly reduce infarct size

**Q.** And the “enhanced neuronal density drop-out in the striatum” value [12]?
**A.** 26%

**Q.** And the “reduction in volume in the striatum” value [12]?
**A.** 11.5%

**Q.** What about the “effects at NR2A” value [13] of the same compound?
**A.** weak effects

**Q.** What about the “eliminating symptoms of drug withdrawal and addiction” value [14] of the same compound?
**A.** conflicting and usually negative

**Q.** What about the “hippocampal damage, convulsions and cell death induced by ICV QUIN” value ([15]; in vivo) of the same compound?
**A.** prevents hippocampal damage, convulsions and cell death

**Q.** And the “memory deficits by chronic ICV infusion of QUIN” value ([15]; simultaneous infusion of memantine)?
**A.** blocked

**Q.** What about the “potency at NR1A/2B” value (NR1A/2B) of the same compound?
**A.** intermediate potency

**Q.** What about the “NMDA channels left unblocked” value (NMDA receptor) of the same compound?
**A.** 20%

**Q.** What about the “levels at which action is specific for antagonism of the NMDA receptor” value (NMDA receptor; does not affect other ligand-gated or voltage-gated channels) of the same compound?
**A.** 1 to 10 µM

**Q.** What about the “rate of cognitive decline” value [16] of the same compound?
**A.** efficacy in decreasing the rate of cognitive decline

**Q.** What about the “neurological or morphological outcome” value [17] of the same compound?
**A.** failed to attenuate

**Q.** What about the “TTP (time-to-peak concentration)” value ([18]; after oral intake) of the same compound?
**A.** 6 to 8 h

**Q.** What about the “decrease of CSF (cerebrospinal fluid) concentration” value ([18]; due to albumin binding) of the same compound?
**A.** 20-50%

**Q.** And the “CSF concentrations lower (CSF sampling)” value ([18]; human subjects)?
**A.** 30-40%

**Q.** And the serum levels ([18]; humans, 20 mg per day)?
**A.** 500 to 1000 nM

**Q.** What about the “blood brain barrier penetration” value ([18]; in vivo) of the same compound?
**A.** easily penetrates the blood brain barrier

**Q.** What about the “plasma clearance half-life (t1/2)” value ([18]; in vivo) of the same compound?
**A.** 60 to 100 h

**Q.** And the protein binding ([18]; in vivo)?
**A.** 42-45%

**Q.** What about the “time to steady-state plasma levels” value ([18]; in vivo) of the same compound?
**A.** approximately 21 days

**Q.** And the “absorption from the gastrointestinal tract” value ([18]; oral)?
**A.** completely absorbed

**Q.** And the plasma levels ([18]; patients treated with 10-30 mg per day)?
**A.** 400 to 1000 nM

**Q.** What about the “cognitive effects in alcoholic dementia” value [19] of the same compound?
**A.** reversed cognitive effects

**Q.** And the “efficacy as an anti-convulsant or in epilepsy” value [20]?
**A.** minimal efficacy

**Q.** What about the “induction of HSP, neuronal vacuolization and necrosis” value [21] of the same compound?
**A.** No induction of HSP (heat shock protein) or neuronal vacuolization and necrosis

**Q.** What about the “BDNF mRNA levels” value (BDNF mRNA) of the same compound?
**A.** increased BDNF mRNA levels

**Q.** What about the “drug interaction with AchE (acetylcholinesterase inhibitors)” value ([22]; combined with AchE inhibitors) of the same compound?
**A.** no adverse drug interaction

**Q.** And the adverse events ([22]; dose-related)?
**A.** nausea, dizziness, and restlessness

**Q.** And the hepatic toxicity ([22]; human, in vivo)?
**A.** minimal hepatic toxicity

**Q.** What about the “patients with headache as adverse event” value ([22]; patients who do not suffer from migraine, mild, usually transitory, dose related) of the same compound?
**A.** up to 10%

**Q.** And the “free brain concentrations lower” value [23]?
**A.** 20-30%

**Q.** What about the “concentrations at which memantine interacts with multiple receptors” value [24] of the same compound?
**A.** greater than 100 μM

**Q.** And the “NMDA stimulated activity of inner hair cell afferents” value [25]?
**A.** selectively inhibit

**Q.** And the “treatment of APN” value [26]?
**A.** efficacy

**Q.** What about the “antagonism at L- and N type voltage-activated calcium channels, Na+ channels” value [27] of the same compound?
**A.** weak antagonist

**Q.** What about the “growth of brain and systemic glutamate secreting tumors” value ([28]; in vitro) of the same compound?
**A.** slow the growth

**Q.** What about the “in vitro proliferation of tumor cells” value ([28]; lung, rhabdomyosarcoma, medulloblastoma, thyroid adenocarcinoma) of the same compound?
**A.** decrease in vitro proliferation

**Q.** What about the “levels at which in vitro proliferation was decreased” value ([28]; unobtainable at therapeutic human doses) of the same compound?
**A.** 100 μM/ml

**Q.** What about the “decrease of tumor volume” value [29] of the same compound?
**A.** 25%

**Q.** And the “tumor expansion facilitated by glutamate secretion” value [29]?
**A.** blocked

**Q.** And the “effect on GABA or AMPA receptors” value (GABA or AMPA receptors)?
**A.** no effect

**Q.** What about the neurological status [30] of the same compound?
**A.** significant improvement

**Q.** And the response of tinnitus [31]?
**A.** successfully treated

**Q.** What about the “therapeutic concentration that produces efficacy in Parkinson's disease” value [32] of the same compound?
**A.** less than 2 μM

**Q.** For `NCC1(CC(=O)O)CCCCC1` [gabapentin], which “treatment of APN” value [26] is on record?
**A.** efficacy
